Results from the supplement of paper PMC10307832.

What was measured:
Assay in all cases: relative viability (nuclei count vs DMSO), 5 days (fraction); higher = more cells survive
[1] = compound: Cc1ccccc1C(C(=O)NC1CCCCC1)N(C(=O)Cn1ccnc1C)c1cccc(F)c1 [IDH-C35] + COc1cc2c(Oc3ccc(NC(=O)C4(C(=O)Nc5ccc(F)cc5)CC4)cc3F)ccnc2cc1OCCCN1CCOCC1 [Foretinib] (partner 0.25 µM)
Outline: (§1)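 The day after seeding in 1536-well plates, lung cancer cell lines were treated by pin tool with a single drug, or with a fixed anchor-drug dose together with five library-drug doses (not always all listed) in √10 steps. After 5 days, a combined fix-and-stain solution (final 0.05% Triton X-100, 1% formaldehyde, 1 ug/ml Hoechst) was added. Nuclei counted on 4× images gave relative viability as treated counts over vehicle counts, reported as the median of duplicate plates.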

[2] = compound: CC1=C(C(=NN1)C)CC2=C(C3=C(S2)N(C(=O)N(C3=O)C)CC(C)C)C(=O)N4C[C@@H](CO4)O + C[C@]1(O)C[C@@H](c2nc(-c3ccc4ccc(-c5ccccc5)nc4c3)c3c(N)nccn32)C1 [Linsitinib] (partner 1 µM)
Outline: as §1

[3] = compound: Cc1ccccc1C(C(=O)NC1CCCCC1)N(C(=O)Cn1ccnc1C)c1cccc(F)c1 [IDH-C35] + Cc1nc(NC(=O)N2CCC[C@H]2C(N)=O)sc1-c1ccnc(C(C)(C)C(F)(F)F)c1 [Alpelisib] (partner 2 µM)
Outline: as §1

[4] = compound: CC1=C(C(=NN1)C)CC2=C(C3=C(S2)N(C(=O)N(C3=O)C)CC(C)C)C(=O)N4C[C@@H](CO4)O + Cc1cc(Nc2cc(N3CCN(C)CC3)nc(Sc3ccc(NC(=O)C4CC4)cc3)n2)n[nH]1 [Tozasertib] (partner 0.1 µM)
Outline: as §1

Cell Line: UMC-11
- relative viability ([1]; first compound 0.08 µM): 0.889
- relative viability ([1]; first compound 0.253 µM): 1.07
- relative viability ([1]; first compound 0.8 µM): 0.997
- relative viability ([1]; first compound 2.53 µM): 1.06
- relative viability ([1]; first compound 8 µM): 1.11
- relative viability ([2]; first compound 0.0025 µM): 1.01
- relative viability ([2]; first compound 0.007906 µM): 1
- relative viability ([2]; first compound 0.025 µM): 0.845
- relative viability ([2]; first compound 0.07906 µM): 0.793
- relative viability ([2]; first compound 0.25 µM): 0.767
- relative viability ([3]; first compound 0.08 µM): 0.998
- relative viability ([3]; first compound 0.253 µM): 0.973
- relative viability ([3]; first compound 0.8 µM): 0.928
- relative viability ([3]; first compound 2.53 µM): 0.946
- relative viability ([3]; first compound 8 µM): 0.988
- relative viability ([4]; first compound 0.0025 µM): 0.199
- relative viability ([4]; first compound 0.007906 µM): 0.172
- relative viability ([4]; first compound 0.025 µM): 0.196
- relative viability ([4]; first compound 0.07906 µM): 0.207
- relative viability ([4]; first compound 0.25 µM): 0.175
